pIC50: −log10 of the molar value.
Experiments:
Nitric oxide synthase 3 = biological target: T1, Nitric oxide synthase 3 (Homo sapiens, UniProt P29474); test: Inhibitory concentration against Endothelial nitric oxide synthase
T1 sequence (P29474 whole entry): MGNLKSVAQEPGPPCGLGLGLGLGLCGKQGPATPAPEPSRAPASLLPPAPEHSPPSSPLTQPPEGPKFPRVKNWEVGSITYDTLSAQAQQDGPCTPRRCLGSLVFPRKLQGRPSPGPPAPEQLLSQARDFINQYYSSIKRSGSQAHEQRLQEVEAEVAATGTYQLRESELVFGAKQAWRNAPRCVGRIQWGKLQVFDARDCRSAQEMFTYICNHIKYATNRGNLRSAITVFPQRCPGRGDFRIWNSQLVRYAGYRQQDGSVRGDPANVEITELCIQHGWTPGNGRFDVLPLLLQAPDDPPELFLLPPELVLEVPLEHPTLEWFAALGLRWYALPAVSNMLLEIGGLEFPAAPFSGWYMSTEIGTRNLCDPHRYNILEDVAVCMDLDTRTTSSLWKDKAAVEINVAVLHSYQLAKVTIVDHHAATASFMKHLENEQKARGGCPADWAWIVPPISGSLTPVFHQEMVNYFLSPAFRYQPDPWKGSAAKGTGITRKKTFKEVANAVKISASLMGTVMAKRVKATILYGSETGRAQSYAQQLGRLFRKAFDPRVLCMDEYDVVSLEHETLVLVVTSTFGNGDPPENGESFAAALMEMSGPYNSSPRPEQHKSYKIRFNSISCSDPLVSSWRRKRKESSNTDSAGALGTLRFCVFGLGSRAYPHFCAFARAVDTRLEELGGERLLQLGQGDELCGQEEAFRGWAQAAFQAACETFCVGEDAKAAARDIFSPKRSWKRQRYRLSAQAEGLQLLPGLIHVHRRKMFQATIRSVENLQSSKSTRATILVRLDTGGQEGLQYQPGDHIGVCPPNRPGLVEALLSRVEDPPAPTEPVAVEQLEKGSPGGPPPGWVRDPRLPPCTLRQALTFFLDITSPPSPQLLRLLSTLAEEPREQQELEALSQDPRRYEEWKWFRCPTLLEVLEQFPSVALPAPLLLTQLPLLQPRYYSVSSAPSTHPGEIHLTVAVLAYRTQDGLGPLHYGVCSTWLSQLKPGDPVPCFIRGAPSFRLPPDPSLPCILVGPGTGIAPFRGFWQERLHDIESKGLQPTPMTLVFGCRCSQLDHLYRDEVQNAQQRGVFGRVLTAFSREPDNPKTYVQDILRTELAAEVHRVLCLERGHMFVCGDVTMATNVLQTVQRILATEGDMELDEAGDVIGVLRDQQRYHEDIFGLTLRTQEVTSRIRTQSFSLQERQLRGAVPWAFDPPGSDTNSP

[1] = biological target: Nitric oxide synthase, inducible (Homo sapiens, UniProt P35228); test: Inhibitory concentration against Inducible nitric oxide synthase
Nitric oxide synthase 1 = Nitric oxide synthase 1 (Homo sapiens, UniProt P29475); test: Inhibitory concentration against Neuronal nitric oxide synthase
[2] = biological target: Nitric oxide synthase (inducible and endothelial) (Homo sapiens) (UniProt P35228+P29474); test: Ratio of inhibitory concentration against Endothelial nitric oxide synthase to Inducible nitric oxide synthase; format: protein assay

Chain of Nitric oxide synthase, inducible (P35228 whole entry): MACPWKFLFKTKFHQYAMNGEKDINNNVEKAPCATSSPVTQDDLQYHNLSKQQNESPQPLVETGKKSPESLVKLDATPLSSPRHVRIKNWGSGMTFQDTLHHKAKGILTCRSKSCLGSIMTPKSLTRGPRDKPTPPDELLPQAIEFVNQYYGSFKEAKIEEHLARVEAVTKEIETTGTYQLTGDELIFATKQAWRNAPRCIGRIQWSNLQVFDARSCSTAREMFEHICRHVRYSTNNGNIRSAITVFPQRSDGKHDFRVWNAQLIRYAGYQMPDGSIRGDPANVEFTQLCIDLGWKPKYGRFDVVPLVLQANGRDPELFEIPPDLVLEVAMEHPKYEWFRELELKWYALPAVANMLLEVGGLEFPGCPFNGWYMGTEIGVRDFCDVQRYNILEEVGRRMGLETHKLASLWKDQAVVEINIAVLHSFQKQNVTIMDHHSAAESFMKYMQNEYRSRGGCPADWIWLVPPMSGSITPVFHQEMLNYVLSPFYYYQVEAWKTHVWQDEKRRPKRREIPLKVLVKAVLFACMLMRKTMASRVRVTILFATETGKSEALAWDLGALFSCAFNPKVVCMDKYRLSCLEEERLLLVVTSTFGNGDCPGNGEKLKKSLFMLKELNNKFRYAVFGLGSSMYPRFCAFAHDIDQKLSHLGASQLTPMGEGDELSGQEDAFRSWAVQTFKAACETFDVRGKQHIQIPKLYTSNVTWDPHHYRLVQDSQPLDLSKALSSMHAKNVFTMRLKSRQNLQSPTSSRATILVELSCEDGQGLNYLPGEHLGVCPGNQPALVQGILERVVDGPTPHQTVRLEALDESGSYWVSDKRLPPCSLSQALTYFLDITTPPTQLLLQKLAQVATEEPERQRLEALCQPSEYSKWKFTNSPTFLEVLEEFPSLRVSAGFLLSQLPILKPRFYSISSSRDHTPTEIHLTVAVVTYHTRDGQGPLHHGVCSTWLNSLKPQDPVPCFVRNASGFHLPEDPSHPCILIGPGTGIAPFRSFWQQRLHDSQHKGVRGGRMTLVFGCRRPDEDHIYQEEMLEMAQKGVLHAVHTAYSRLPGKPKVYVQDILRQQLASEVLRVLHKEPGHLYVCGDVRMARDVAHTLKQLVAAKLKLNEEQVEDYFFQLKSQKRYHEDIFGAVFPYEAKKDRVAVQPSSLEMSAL
Chain of Nitric oxide synthase 1 (P29475 whole entry): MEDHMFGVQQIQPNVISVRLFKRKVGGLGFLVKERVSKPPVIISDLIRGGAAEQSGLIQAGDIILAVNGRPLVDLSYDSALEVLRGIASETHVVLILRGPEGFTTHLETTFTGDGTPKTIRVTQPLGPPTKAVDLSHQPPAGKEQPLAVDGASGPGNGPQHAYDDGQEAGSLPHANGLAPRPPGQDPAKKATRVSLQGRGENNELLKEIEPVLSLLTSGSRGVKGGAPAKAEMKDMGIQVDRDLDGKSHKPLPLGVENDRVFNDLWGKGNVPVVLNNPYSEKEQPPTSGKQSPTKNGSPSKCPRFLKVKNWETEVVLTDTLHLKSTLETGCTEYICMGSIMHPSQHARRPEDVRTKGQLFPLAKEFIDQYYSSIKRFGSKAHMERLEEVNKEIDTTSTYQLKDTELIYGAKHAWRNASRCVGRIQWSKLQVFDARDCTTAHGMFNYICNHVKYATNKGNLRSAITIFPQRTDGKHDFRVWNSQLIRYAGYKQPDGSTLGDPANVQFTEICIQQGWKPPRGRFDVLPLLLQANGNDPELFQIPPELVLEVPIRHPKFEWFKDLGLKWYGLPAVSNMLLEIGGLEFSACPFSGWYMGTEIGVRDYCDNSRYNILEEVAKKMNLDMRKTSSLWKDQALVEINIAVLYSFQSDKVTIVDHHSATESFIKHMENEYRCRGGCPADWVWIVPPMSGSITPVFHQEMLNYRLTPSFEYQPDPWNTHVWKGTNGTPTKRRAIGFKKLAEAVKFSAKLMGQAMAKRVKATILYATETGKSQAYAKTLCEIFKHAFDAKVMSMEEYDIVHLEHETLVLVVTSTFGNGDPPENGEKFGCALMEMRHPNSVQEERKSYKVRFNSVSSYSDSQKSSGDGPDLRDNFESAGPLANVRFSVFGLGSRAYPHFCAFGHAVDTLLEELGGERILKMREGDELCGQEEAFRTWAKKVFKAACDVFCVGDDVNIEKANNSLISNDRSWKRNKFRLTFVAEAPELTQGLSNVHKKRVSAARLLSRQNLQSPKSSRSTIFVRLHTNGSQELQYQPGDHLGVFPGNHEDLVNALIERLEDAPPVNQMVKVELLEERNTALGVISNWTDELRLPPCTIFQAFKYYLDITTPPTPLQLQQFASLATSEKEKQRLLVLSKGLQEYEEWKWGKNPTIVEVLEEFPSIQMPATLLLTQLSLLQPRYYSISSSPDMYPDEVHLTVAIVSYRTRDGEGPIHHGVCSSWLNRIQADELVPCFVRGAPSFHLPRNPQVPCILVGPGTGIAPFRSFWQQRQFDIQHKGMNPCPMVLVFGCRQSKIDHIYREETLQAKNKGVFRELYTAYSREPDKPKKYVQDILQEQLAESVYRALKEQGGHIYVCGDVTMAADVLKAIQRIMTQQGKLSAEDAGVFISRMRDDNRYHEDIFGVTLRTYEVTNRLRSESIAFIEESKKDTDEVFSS

pIC50 (Nitric oxide synthase 3) | pIC50 [1] | pIC50 (Nitric oxide synthase 1) | Selectivity [2] | Compound
< 4.30 | < 4.30 | < 4.30 |  | CC1CC(N)=NC2CCCCC2S1 (stereo not drawn)
5.39 | 5.46 | 6.08 | 1.1 | CC1CN=C(N)CCS1 (stereo not drawn)
5.22 | 5.96 | 5.57 | 5.3 | NC1=NC(CO)CSCC1 (stereo not drawn)
5.30 | 5.52 | 6.00 | 1.6 | CC1CC(N)=NCCS1 (stereo not drawn)
< 4.30 | < 4.30 | < 4.30 |  | CC1CSCCN=C1N (stereo not drawn)
4.22 | 6.49 | 5.72 | 186 | CC(C)CC1CSCCC(N)=N1 (stereo not drawn)
 |  |  | 3.7 | CC(=N)NCCCC[C@H](N)C(=O)O
6.35 |  |  |  | NC1=NCCCOC1
4.30 | 6.54 | 5.55 | 172 | CCCC1CSCCC(N)=N1 (stereo not drawn)
6.00 | 6.72 | 6.36 | 5.2 | CCC[C@H]1CSCCC(N)=N1
< 4.30 | < 4.30 | < 4.30 |  | NC1=NCCNCC1
4.11 | 6.30 | 5.92 | 164 | CCCCC1CSCCC(N)=N1 (stereo not drawn)
4.98 | 5.92 | 5.55 | 8.8 | NC1=NCCCSC1
5.96 | 6.51 | 6.23 | 3.7 | CCC1CSCCC(N)=N1 (stereo not drawn)
4.87 | 5.85 | 5.37 | 9.5 | NC1=NCCSCC1
 |  |  | 42 | CCC[C@@H]1CSCCC(N)=N1
5.30 | 6.09 | 5.74 | 6.1 | CC1CSCCC(N)=N1 (stereo not drawn)
4.30 | 5.92 | 5.15 |  | CCC[C@@H]1CSCCC(=N)N1
4.60 | 4.93 | 5.06 | 2.1 | NC1=NCCOCC1

From ChEMBL document CHEMBL1138708, “Synthesis of analogs of (1,4)-3- and 5-imino oxazepane, thiazepane, and diazepane as inhibitors of nitric oxide synthases” (Bioorg Med Chem Lett, 2004)
